Experimental data taken from US6054435A, “6-O-substituted macrolides having antibacterial activity” (priority 1999, dated 2000).
≈ marks a conversion by molar mass, not a printed value.

Experiments:
Experiment in all cases: in vitro antibacterial activity (MIC), agar dilution
Format in all cases: cell-based
Candida albicans CCH 442 = conditions: organism code TT; BHI agar, 35-37° C., 20 to 24 hours; unit assumed
In short: (§1)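 Test compound serially diluted in Brain Heart Infusion agar across twelve plates; inocula of 1:100 dilution (1:10 for slow growers such as Streptococcus) applied by Steers replicator. MIC taken visually as lowest concentration giving no growth, slight haze or sparse isolated colonies versus drug-free growth control.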

[1] = system: Enterococcus faecium ATCC 8043; conditions: organism code II; BHI agar, 35-37° C., 20 to 24 hours; unit assumed
In short: as §1

Escherichia coli DC-2 = conditions: organism code SS; BHI agar, 35-37° C., 20 to 24 hours; unit assumed
In short: as §1

Escherichia coli JUHL = conditions: organism code QQ; BHI agar, 35-37° C., 20 to 24 hours; unit assumed
In short: as §1

Escherichia coli SS = conditions: organism code RR; BHI agar, 35-37° C., 20 to 24 hours; unit assumed
In short: as §1

[2] = system: Haemophilis Influenzae DILL AMP R; conditions: organism code WW; BHI agar, 35-37° C., 20 to 24 hours; unit assumed
In short: as §1

[3] = system: Micrococcus luteus ATCC 4698; conditions: organism code PP; BHI agar, 35-37° C., 20 to 24 hours; unit assumed
In short: (§2)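 Plates of BHI agar were prepared with twelve aqueous dilutions of compound, then inoculated at 1:100 dilution, or 1:10 for slow growers like Streptococcus. After incubation they were inspected, and the lowest concentration yielding no growth, slight haze or sparse colonies was recorded as MIC.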

[4] = system: Micrococcus luteus ATCC 9341; conditions: organism code OO; BHI agar, 35-37° C., 20 to 24 hours; unit assumed
In short: as §2

[5] = system: Mycobacterium smegmatis ATCC 114; conditions: organism code UU; BHI agar, 35-37° C., 20 to 24 hours; unit assumed
In short: as §1

[6] = system: Nocardia Asteroides ATCC9970; conditions: organism code VV; BHI agar, 35-37° C., 20 to 24 hours; unit assumed
In short: as §1

[7] = system: Staphylococcus aureus 1775; conditions: organism code GG; BHI agar, 35-37° C., 20 to 24 hours; unit assumed
In short: as §1

[8] = system: Staphylococcus aureus A-5278; conditions: organism code CC; BHI agar, 35-37° C., 20 to 24 hours; unit assumed
In short: as §1

[9] = system: Staphylococcus aureus A5177; conditions: organism code BB; BHI agar, 35-37° C., 20 to 24 hours; unit assumed
In short: as §1

[10] = system: Staphylococcus aureus ATCC 6538P; conditions: organism code AA; BHI agar, 35-37° C., 20 to 24 hours; unit assumed
In short: as §1

[11] = system: Staphylococcus aureus CMX 553; conditions: organism code FF; BHI agar, 35-37° C., 20 to 24 hours; unit assumed
In short: as §1

[12] = system: Staphylococcus aureus CMX 642A; conditions: organism code DD; BHI agar, 35-37° C., 20 to 24 hours; unit assumed
In short: as §1

[13] = system: Staphylococcus aureus NCTC10649M; conditions: organism code EE; BHI agar, 35-37° C., 20 to 24 hours; unit assumed
In short: as §1

[14] = system: Staphylococcus epidermidis 3519; conditions: organism code HH; BHI agar, 35-37° C., 20 to 24 hours; unit assumed
In short: as §1

[15] = system: Streptococcus Pneumonia 5649; conditions: organism code ZZA; BHI agar, 35-37° C., 20 to 24 hours; unit assumed
In short: as §1

[16] = system: Streptococcus Pneumonia 5979; conditions: organism code ZZ; BHI agar, 35-37° C., 20 to 24 hours; unit assumed
In short: as §1

[17] = system: Streptococcus Pneumonia ATCC6303; conditions: organism code XX; BHI agar, 35-37° C., 20 to 24 hours; unit assumed
In short: as §1

[18] = system: Streptococcus Pneumonia GYR 1171; conditions: organism code YY; BHI agar, 35-37° C., 20 to 24 hours; unit assumed
In short: as §1

[19] = system: Streptococcus agalactiae CMX 508; conditions: organism code KK; BHI agar, 35-37° C., 20 to 24 hours; unit assumed
In short: as §1

[20] = system: Streptococcus bovis A-5169; conditions: organism code JJ; BHI agar, 35-37° C., 20 to 24 hours; unit assumed
In short: as §1

[21] = system: Streptococcus pyogenes 930; conditions: organism code MM; BHI agar, 35-37° C., 20 to 24 hours; unit assumed
In short: as §1

[22] = system: Streptococcus pyogenes EES61; conditions: organism code LL; BHI agar, 35-37° C., 20 to 24 hours; unit assumed
In short: as §1

[23] = system: Streptococcus pyogenes PIU 2548; conditions: organism code NN; BHI agar, 35-37° C., 20 to 24 hours; unit assumed
In short: as §1

| Compound | MIC (Candida albicans CCH 442) [µg/mL] | MIC [1] [µg/mL] | MIC (Escherichia coli DC-2) [µg/mL] | MIC (Escherichia coli JUHL) [µg/mL] | MIC (Escherichia coli SS) [µg/mL] | MIC [2] [µg/mL] | MIC [3] [µg/mL] | MIC [4] [µg/mL] | MIC [5] [µg/mL] | MIC [6] [µg/mL] | MIC [7] [µg/mL] | MIC [8] [µg/mL] | MIC [9] [µg/mL] | MIC [10] [µg/mL] | MIC [11] [µg/mL] | MIC [12] [µg/mL] | MIC [13] [µg/mL] | MIC [14] [µg/mL] | MIC [15] [µg/mL] | MIC [16] [µg/mL] | also measured |
| --- | --- | --- | --- | --- | --- | --- | --- | --- | --- | --- | --- | --- | --- | --- | --- | --- | --- | --- | --- | --- | --- |
| CC[C@H]1OC(=O)[C@H](C)C(=O)[C@H](C)[C@@H](O[C@@H]2O[C@H](C)C[C@H](N(C)C)[C@H]2O)[C@](C)(OC/C=C/c2ccc(-c3nccs3)s2)C[C@@H](C)C(=O)[C@H](C)[C@H]2NC(=O)O[C@@]21C [Example 63] | > 100 | 0.05 (≈ 0.0622 µM) | 100 (≈ 124 µM) | 100 (≈ 124 µM) | 0.1 (≈ 0.124 µM) | 4 (≈ 4.97 µM) | 0.1 (≈ 0.124 µM) | 0.05 (≈ 0.0622 µM) | 0.39 (≈ 0.485 µM) | 0.05 (≈ 0.0622 µM) | > 100 | > 100 | 0.1 (≈ 0.124 µM) | 0.1 (≈ 0.124 µM) | 0.1 (≈ 0.124 µM) | 0.1 (≈ 0.124 µM) | 0.1 (≈ 0.124 µM) | 0.2 (≈ 0.249 µM) | 0.25 (≈ 0.311 µM) | 8 (≈ 9.95 µM) | MIC [17]: 0.008 µg/mL (≈ 0.00995 µM); MIC [18]: 0.008 µg/mL (≈ 0.00995 µM); MIC [19]: 0.05 µg/mL (≈ 0.0622 µM); MIC [20]: 0.05 µg/mL (≈ 0.0622 µM); MIC [21]: 6.2 µg/mL (≈ 7.71 µM); MIC [22]: 0.05 µg/mL (≈ 0.0622 µM); MIC [23]: 0.2 µg/mL (≈ 0.249 µM) |
| CC[C@H]1OC(=O)[C@H](C)C(=O)[C@H](C)[C@@H](O[C@@H]2O[C@H](C)C[C@H](N(C)C)[C@H]2O)[C@](C)(OC/C=C/c2nc(-c3cccnc3)cs2)C[C@@H](C)C(=O)[C@H](C)[C@H]2NC(=O)O[C@@]21C [Example 65] | > 100 | 0.02 (≈ 0.025 µM) | 25 (≈ 31.3 µM) | 100 (≈ 125 µM) | 0.2 (≈ 0.25 µM) | 2 (≈ 2.5 µM) | 0.1 (≈ 0.125 µM) | 0.02 (≈ 0.025 µM) | 0.78 (≈ 0.976 µM) | 0.02 (≈ 0.025 µM) | > 100 | > 100 | 0.1 (≈ 0.125 µM) | 0.1 (≈ 0.125 µM) | 0.1 (≈ 0.125 µM) | 0.1 (≈ 0.125 µM) | 0.1 (≈ 0.125 µM) | 0.1 (≈ 0.125 µM) | 0.25 (≈ 0.313 µM) | > 128 | MIC [17]: 0.008 µg/mL (≈ 0.01 µM); MIC [18]: ≤ 0.004 µg/mL; MIC [19]: 0.01 µg/mL (≈ 0.0125 µM); MIC [20]: ≤ 0.005 µg/mL; MIC [21]: 50 µg/mL (≈ 62.6 µM); MIC [22]: 0.01 µg/mL (≈ 0.0125 µM); MIC [23]: 0.1 µg/mL (≈ 0.125 µM) |
| CC[C@H]1OC(=O)[C@H](C)C(=O)[C@H](C)[C@@H](O[C@@H]2O[C@H](C)C[C@H](N(C)C)[C@H]2O)[C@](C)(OC/C=C/c2cnc(-c3cncs3)s2)C[C@@H](C)C(=O)[C@H](C)[C@H]2NC(=O)O[C@@]21C [Example 60] | > 100 | 0.02 (≈ 0.0248 µM) | 100 (≈ 124 µM) | 50 (≈ 62.1 µM) | 0.2 (≈ 0.248 µM) | 4 (≈ 4.97 µM) | 0.02 (≈ 0.0248 µM) | ≤ 0.005 | 1.56 (≈ 1.94 µM) | 0.01 (≈ 0.0124 µM) | > 100 | > 100 | 0.05 (≈ 0.0621 µM) | 0.1 (≈ 0.124 µM) | 0.05 (≈ 0.0621 µM) | 0.05 (≈ 0.0621 µM) | 0.1 (≈ 0.124 µM) | 0.1 (≈ 0.124 µM) | 0.25 (≈ 0.311 µM) | 1 (≈ 1.24 µM) | MIC [17]: ≤ 0.004 µg/mL; MIC [18]: ≤ 0.004 µg/mL; MIC [19]: 0.01 µg/mL (≈ 0.0124 µM); MIC [20]: ≤ 0.005 µg/mL; MIC [21]: 3.1 µg/mL (≈ 3.85 µM); MIC [22]: 0.01 µg/mL (≈ 0.0124 µM); MIC [23]: 0.2 µg/mL (≈ 0.248 µM) |
| CC[C@H]1OC(=O)[C@H](C)C(=O)[C@H](C)[C@@H](O[C@@H]2O[C@H](C)C[C@H](N(C)C)[C@H]2O)[C@](C)(OCC#Cc2ccc(-c3cccc(NC(C)=O)c3)s2)C[C@@H](C)C(=O)[C@H](C)[C@H]2NC(=O)O[C@@]21C [Example 20] | > 100 | 0.05 (≈ 0.0587 µM) | 100 (≈ 117 µM) | > 100 | 0.2 (≈ 0.235 µM) | 4 (≈ 4.69 µM) | 0.1 (≈ 0.117 µM) | 0.02 (≈ 0.0235 µM) | 1.56 (≈ 1.83 µM) | 0.1 (≈ 0.117 µM) | > 100 | > 100 | 0.05 (≈ 0.0587 µM) | 0.1 (≈ 0.117 µM) | 0.1 (≈ 0.117 µM) | 0.1 (≈ 0.117 µM) | 0.1 (≈ 0.117 µM) | 0.1 (≈ 0.117 µM) | 0.25 (≈ 0.293 µM) | 0.5 (≈ 0.587 µM) | MIC [17]: 0.15 µg/mL (≈ 0.176 µM); MIC [18]: 0.015 µg/mL (≈ 0.0176 µM); MIC [19]: ≤ 0.005 µg/mL; MIC [20]: ≤ 0.005 µg/mL; MIC [21]: 6.2 µg/mL (≈ 7.28 µM); MIC [22]: 0.02 µg/mL (≈ 0.0235 µM); MIC [23]: 0.2 µg/mL (≈ 0.235 µM) |
